Where “and” joins values, the source holds several entries; their conditions need not be identical. Equal entries are not always repeated. Where two headings read alike, the source gives them in different places.
How the values were obtained:
Type in all cases: cell-based, human
CD11b = tested on: CD11b
Description: (§1) In an immunological marker examination of APL cells, CD11b is negative and CD33 is positive. The surface antigen CD33 is associated with the degree of cellular immaturity, while the surface antigen CD11b is associated with the degree of cellular maturity, High expression of CD11b, as an adhesion molecule on the cell surface, may be a marker of cell differentiation maturation.
(§2) NB4 cells at the logarithmic growth phase were seeded at a density of 2×10^5 cells/well into a 6-well plate, and dosed 24 h later. […] 24 h after the last dosing, cells were collected, centrifuged to remove the culture medium, washed twice with precooled PBS, and resuspended in 100 μL PBS. APC (allophycocyanin) and BB515 labeled CD11b and CD33 monoclonal antibodies and corresponding isotype antibodies (both purchased from BD, USA) were added respectively. Following mixing, the cells were incubated at 4° C. for 30 min, filtered through a cell filter membrane, and then detected.

CD33 = tested on: CD33
Description: as §1, §2

NB4 cells [1] = conditions: single compound 30 μM; dosed 10 d
Description: When normal neutrophils or differentiated cells are stimulated, the production of intracellular superoxide anions increases. NBT receives hydrogen from NADPH in the differentiated cells and reduces into insoluble blue black or blue purple particles—formazane particles.
NB4 cells at the logarithmic growth phase were seeded at a density of 2×10^5 cells/well into a 6-well plate, and dosed 24 h later. […] 24 h after the last dose, the culture medium was discarded, and the cells were washed twice with PBS. 500 μL of a 0.1% NBT solution (purchased from Sigma and prepared from PBS) containing 1 μg/ml of phorbol ester (PMA, purchased from Sigma) was added to each well, and the cells were incubated at 37° C. for 30 min, washed twice with PBS, and observed under a microscope. In a 400× magnification field, 200 cells were randomly counted from each specimen. Cells containing gray or black formazane particles in the cytoplasm were counted as NBT reduction positive cells, and the percentage of the reduction positive cells was calculated. The experiment was repeated three times.

NB4 cells [2] = conditions: 24 h
Description: The ANNEXIN V-FITC/PI double-staining method is established based on a principle of asymmetric loss of cell membrane in apoptotic cells, that is, externalization of phosphatidylserine. Determination of results: normal live cells: annexin V^−PI^−; apoptotic cells: annexin V^+PI^−, and necrotic or late apoptotic cells: annexin V^+PI^+.
NB4 cells at the logarithmic growth phase were seeded at a density of 1×10^5 cells/well into a 6-well plate, and dosed 24 h later. The proapoptotic effect of each group was detected according to the dosing methods in Table 1. The cells were collected 24 h after drug dosing and detected on a flow cytometer according to the operating procedure of an ANNEXIN V-FITC/PI apoptosis detection kit (purchased from Solarbio). The experiment was repeated three times.

NB4 cells [3] = conditions: 10 d; doses of Table 2 (alone 30 μM, pairs 15 μM each, DCI 10 μM each)
Description: NB4 cells at the logarithmic growth phase were seeded at a density of 2×10^5 cells/well into a 6-well plate, and dosed 24 h later. […] NB4 cells cultured for 10 d were centrifuged at 110 g for 3 min, smeared, fixed with methanol, and air dried naturally. Then, the cell smear was stained with Wright's-Giemsa for morphological observation. The experiment was repeated three times.

[4] = single compound 30 μM, dosed 10 d

| SMILES | Positive rate of CD11b expression in NB4 cells (%) (CD11b; [4]) | Positive rate of CD33 expression in NB4 cells (%) (CD33; [4]) | NBT reduction positive rate in NB4 cells (%) (NB4 cells [1]) | Apoptosis rate of NB4 cells (%) (NB4 cells [2]; single compound 20 μM) | Apoptosis rate of NB4 cells (%) (NB4 cells [2]; single compound 40 μM) | Morphology of NB4 cells (NB4 cells [3]) | Positive rate of CD11b expression in NB4 cells (%) (CD11b) | Positive rate of CD33 expression in NB4 cells (%) (CD33) |
| --- | --- | --- | --- | --- | --- | --- | --- | --- |
| Nc1ncnc2c1ncn2[C@@H]1O[C@H](CO)C[C@H]1O [CDY, Cordycepin] | 1.79 ± 1.42 | 37.14 ± 15.90 | 3.19% and 3.19 ± 2.09% | 10.70 ± 3.54 | 19.39 ± 5.64 | no significant differences from the control group | – | – |
| O=C1Nc2ccccc2/C1=C1/Nc2ccccc2C1=O [IDB, Indirubin] | – | – | 15.20% and 15.20 ± 4.10 % | 28.88 ± 11.51 | 31.38 ± 8.92 | – | 26.42 ± 10.91 | 27.50 ± 16.67 |

— patent publication US20250127751A1, “Traditional Chinese Medicine Compound Preparation for Tumors and Application thereof” (priority 2023, published 2025)
